# According to patent publication US10308689B2, “Dengue virus (DV) polypeptide sequences, T cell epitopes and methods and uses thereof” (LA JOLLA INSTITUTE FOR ALLERGY AND IMMUNOLOGY, priority 2010, dated 2019):
# Ends that are not written are not given here.
# How the values were obtained:
# [1] = test system: PBMC of healthy adult blood donors from Colombo, Sri Lanka; assay: Ex vivo IFNγ ELISPOT, HLA-matched PBMC of Sri Lankan blood donors; type: cell-based, human; set-up: Total Response per epitope: unit not given here; conditions: for # donors responded: number of donors responding to the epitope; for T cell response [SFC]: ex vivo IFNγ SFC/10^6 PBMC; for # of responders: responding donors, HLA allele(s)
# [2] = biological target: purified HLA molecules (corresponding predicted allele); assay: MHC peptide-binding assay, summary over alleles; set-up: species or system human
# [3] = restricting HLA allele and serotype as given
# [4] = total over responding donors, restricting HLA allele and serotype as given
# [5] = IFNγ ELISPOT response summed over responding donors, per epitope
# [6] = HLA-matched PBMC, proteome-wide screen
# [7] = HLA allele, supertype and serotype
# [8] = summed IFNγ ELISPOT response per epitope, HLA allele and serotype as given
Compound,"# donors responded [1, 3]",T cell response [SFC] ([1]; per epitope),# of responders [1],"Total Response per epitope [1, 4]","Total Response per epitope [1, 5]","# donors responded [1, 6]",other results
CC[C@H](C)[C@H](NC(=O)[C@@H]1CCCN1C(=O)CNC(=O)[C@@H](NC(=O)[C@H](C)N)[C@@H](C)O)C(=O)N[C@@H](CC(C)C)C(=O)N[C@H](C(=O)N[C@@H](CC(C)C)C(=O)N[C@@H](Cc1c[nH]c2ccccc12)C(=O)O)[C@@H](C)O,2,938 SFC,2,938.3,,,IC50 ([2]; allele B*5801): 13 nM
CC[C@H](C)[C@H](NC(=O)[C@@H]1CCCN1C(=O)CNC(=O)[C@@H](NC(=O)[C@H](C)N)[C@@H](C)O)C(=O)N[C@@H](CO)C(=O)N[C@H](C(=O)N[C@@H](CC(C)C)C(=O)N[C@@H](Cc1c[nH]c2ccccc12)C(=O)O)[C@@H](C)O,2,236 SFC,2,235.5,,,IC50 ([2]; allele B*5801): 1 nM
CC(C)C[C@H](NC(=O)[C@@H](NC(=O)[C@H](Cc1c[nH]c2ccccc12)NC(=O)[C@H](C)NC(=O)[C@H](CO)NC(=O)[C@H](C)NC(=O)[C@@H]1CCCN1C(=O)[C@@H](N)Cc1c[nH]cn1)[C@@H](C)O)C(=O)N[C@@H](Cc1ccc(O)cc1)C(=O)O,3,,,281.7,,,IC50 ([2]; allele B*3501): 6 nM
CC[C@H](C)[C@H](N)C(=O)N[C@@H](CS)C(=O)N[C@@H](CO)C(=O)N[C@@H](C)C(=O)N[C@H](C(=O)N1CCC[C@H]1C(=O)N[C@H](C(=O)N[C@@H](Cc1c[nH]cn1)C(=O)N[C@@H](Cc1c[nH]c2ccccc12)C(=O)O)C(C)C)C(C)C,1,,,115.0,,,IC50 ([2]; allele B*5801): 6 nM
CC[C@H](C)[C@H](NC(=O)[C@H](CCC(N)=O)NC(=O)[C@@H](N)CCCCN)C(=O)N[C@@H](C)C(=O)N[C@@H](CC(N)=O)C(=O)N[C@@H](CCC(=O)O)C(=O)N[C@@H](CC(C)C)C(=O)N[C@@H](CC(N)=O)C(=O)N[C@@H](Cc1ccc(O)cc1)C(=O)O,1,,,26.7,,,IC50 ([2]; allele B*1501): 9 nM
CSCC[C@H](NC(=O)[C@@H](NC(=O)[C@H](Cc1c[nH]cn1)NC(=O)[C@H](Cc1ccccc1)NC(=O)[C@@H](NC(=O)CNC(=O)[C@H](CCC(=O)O)NC(=O)[C@@H](N)CCSC)C(C)C)[C@@H](C)O)C(=O)N[C@@H](Cc1c[nH]c2ccccc12)C(=O)O,,,,,,,IC50 ([2]; allele B*4403): 3 nM
CC[C@H](C)[C@H](NC(=O)CNC(=O)[C@H](CCC(=O)O)NC(=O)CNC(=O)[C@H](CCC(=O)O)NC(=O)[C@H](CCSC)NC(=O)[C@H](CCC(N)=O)NC(=O)[C@@H](N)CCCNC(=N)N)C(=O)N[C@@H](Cc1ccccc1)C(=O)O,,,,,108.3,1,IC50 ([2]; allele B*1501): 6 nM
CSCC[C@H](NC(=O)[C@H](CCC(N)=O)NC(=O)[C@@H](N)CCCNC(=N)N)C(=O)N[C@@H](CCC(=O)O)C(=O)NCC(=O)N[C@@H](CCC(=O)O)C(=O)NCC(=O)N[C@H](C(=O)N[C@@H](CC(C)C)C(=O)O)C(C)C,,,,,56.7,1,IC50 ([2]; allele B*1501): 19 nM
CSCC[C@H](NC(=O)[C@H](CCCCN)NC(=O)[C@H](CC(C)C)NC(=O)[C@@H](NC(=O)[C@@H](N)CCCNC(=N)N)C(C)C)C(=O)N[C@H](C(=O)N[C@@H](CCC(=O)O)C(=O)N1CCC[C@H]1C(=O)N[C@@H](Cc1c[nH]c2ccccc12)C(=O)O)C(C)C,,,,,150.0,1,IC50 ([2]; allele B*5801): 1 nM
CC[C@H](C)[C@H](NC(=O)CNC(=O)[C@H](CCC(=O)O)NC(=O)[C@@H]1CCCN1C(=O)[C@@H](N)[C@@H](C)O)C(=O)N[C@H](C(=O)N1CCC[C@H]1C(=O)N[C@@H](CO)C(=O)N[C@@H](CCSC)C(=O)O)[C@@H](C)CC,,2717 SFC,5,,2716.7,5,IC50 ([2]; allele B*3501): 8 nM
CC(C)C[C@H](NC(=O)[C@H](CCC(N)=O)NC(=O)[C@@H](NC(=O)[C@H](Cc1ccc(O)cc1)NC(=O)[C@@H](N)C(C)C)[C@@H](C)O)C(=O)N[C@@H](CS)C(=O)N[C@@H](CC(=O)O)C(=O)N[C@@H](Cc1c[nH]cn1)C(=O)N[C@@H](CCCNC(=N)N)C(=O)O,,,,,,,"# donors responded [1, 7]: 1; Total Response per epitope [1, 8]: 35.0; IC50 ([2]; allele A*3301): 1900 nM"
CC(C)[C@H](NC(=O)[C@H](CCC(=O)O)NC(=O)[C@H](Cc1ccc(O)cc1)NC(=O)[C@H](CO)NC(=O)CNC(=O)[C@H](Cc1c[nH]cn1)NC(=O)[C@H](Cc1ccc(O)cc1)NC(=O)[C@H](C)NC(=O)[C@@H](N)Cc1c[nH]c2ccccc12)C(=O)O,,,,,,,"# donors responded [1, 7]: 1; Total Response per epitope [1, 8]: 25.0; IC50 ([2]; allele B*5101): 11 nM"
ATGPITTLW,1,505 SFC,1,505.0,,,IC50 ([2]; allele B*5801): 5 nM
DPASIAARGY,9,2383 SFC,9,2383.3,,,IC50 ([2]; allele B*3501): 5620 nM
GEGLHKLGY,2,,,413.3,,,IC50 ([2]; allele B*4403): 281 nM
GPLVAGGLL,3,,,748.3,,,

Compound,"# donors responded [1, 3]",T cell response [SFC] ([1]; per epitope),# of responders [1],"Total Response per epitope [1, 4]","Total Response per epitope [1, 5]","# donors responded [1, 6]",other results
HPGAGKTKRY,10,3047 SFC,10,3046.7,,,
IANOATVLM,,1518 SFC,7,,,,
IANQAAILM,1,,,58.3,,,
IETTILDVDL,,,,,1413.3,2,
IGIGVLLTW,1,,,378.3,,,
KEGVFHTMW,1,,,178.3,,,
KQISNELNY,1,,,26.7,,,
KSGAIKVLK,1,,,48.3,,,
KVLNPYMPSV,,,,,63.3,1,
KVRKDIQQW,,,,,38.3,1,IC50 ([2]; allele B*5701): 15 nM
LATGPVLTLW,1,745 SFC,1,745.0,,,
LMMILPAAL,,,,,46.7,1,
LPVWLAHKVA,,23 SFC,1,,23.3,1,
LPVWLAYKVA,,2427 SFC,7,,2426.7,7,IC50 ([2]; allele B*3501): 5100 nM
LWEGSPGKF,,,,,25.0,1,IC50 ([2]; allele A*2402): 6160 nM
